# Data published in publication PMC10082216 (Nature Communications, 2023).
# “And” between values parts separate entries of the source, which are not always exact repeats. Identical values can stand only once. “Also recorded” adds a separate entry of the source. Like-named read-outs stand apart in the source and are kept apart here.
# Tests used:
# [1] = test system: synchronized ring-stage P. falciparum 3D7-pULG8-GFP; assay: Dose-response analysis on asexual parasites, 3D7; assay type: cell-based; settings: Plasmodium falciparum
# Procedure: (§1) Plasmodium falciparum 3D7-pULG8-GFP or NF54 strains were synchronized by sorbitol lysis. Rings were then diluted to 0.5% parasitemia and loaded into an empty 96-well plate (200 µL/well). First, well volume was doubled and compound was added to obtain 20 µM (TD-6450) and 500 nM (NITD609) final concentrations. The ring suspension was then manually serially diluted 1/2 for 12 points, obtaining 9.77 nM (TD-6450) and 0.24 nM (NITD609) as lowest concentrations. The same operation was done with DMSO to have a negative control. After 48 hours of incubation, the plates were centrifugated and RBC pellets were incubated for 30 min with Sybr-G (1/1000 diluted in PBS, Thermo Fisher cat. no. S7567). After PBS washing (2x), pellets were resuspended in 200 µL of PBS and parasitemia was quantified by FACSCanto and analyzed with FlowJo V12. IC50s were determined using GraphPad Prism 5.1 as mentioned. Images from optical microscopy were taken using a Leica inverted microscope and analyzed with Las X software.
# [2] = test system: synchronized ring-stage P. falciparum NF54; assay: Dose-response analysis on asexual parasites, NF54; assay type: cell-based, Plasmodium falciparum; settings: for IC50: Plasmodium falciparum, NF54, 48 h; for Parasitemia 1 / Parasitemia 2 / Parasitemia 3: NF54 ring stage
# Procedure: as §1
# [3] = test system: stage V gametocytes of P. falciparum (3D7 pULG8-GFP strain); assay: Post-screening validation with 96-well plate microsphiltration (Paris); assay type: cell-based, Plasmodium falciparum; settings: for retention 24 h after drug washout: 24 h exposure, remeasured additional 24 h after washout; for confirmation of stiffening activity upon post-screening: DRA, 3D7, Paris laboratory; for Normalized retention rate: gametocytes exposed 24 h
# Procedure: Plasmodium falciparum NF54 strain parasites (used for screening campaign) were cultured at 4% hematocrit in RBCs from informed blood donors (blood group A) as previously described. Parasites were taken from the -80 °C freezer, then rapidly melt for 1 minute in a 37 °C water bath. A saline solution was gently added to avoid the lysis. Firstly, NaCl dissolved at 12% in distilled water (1/5 of the volume measured in the cryovial) and then NaCl dissolved at 1.6% (9 times the cryovial’s volume). After that, fresh RBCs were added to allow parasites re-growth. Infected RBCs were kept in RPMI medium (Sigma-Aldrich, cat. no. R4130), supplemented with 10% of decomplemented human serum, hypoxanthine 50 mg/l (Sigma-Aldrich, cat. no. H9636). Biobank of Castilla y Leon and Centro de Transfusiones de Madrid as providers of human red blood cell concentrates. The production of gametocytes was induced from a 0.5% ring-stage parasitemia (day 0). Medium was changed daily to induce gametocytes differentiation, as previously described. At day 17, gametocytes were concentrated using a density gradient medium (NycoPrep 1.077, Progen cat. no. 1114550)[27]. Parasitemia was adjusted by FACS (SYBR-Green and MitoTracker double staining, 3–5% targeted). Hematocrit was adjusted to 0.5% by adding fresh RBCs and controlled by manual counting in a Neubauer chamber (Celeromics, cat. no. 717810). Finally, the gametocyte suspension was poured (45 μL/well) into the compound-containing 384-well microplate, then incubated 24 hours both for the screening campaign and the dose-response analysis. Both asexual and sexual stages were cultivated in RPMI 1640 supplemented with 25 mM HEPES, 50 mg/L hypoxanthine, 50 μg/mL gentami-cin, 10% pooled heat-inactivated human serum (A^+). Each batch of serum was obtained by pooling 10 serum bags from different donors. Serum was kept at −20 °C and thawed in a warmed water bath before use. A new serum batch was prepared when the previous was completed. For dose-response analysis and microfluidics, both the 3D7-pULG8-GFP[67] and the NF54 strain (BEI Resources, cat. no. MRA-1000) were tested. The 3D7 strain was cultivated as described above with the addition of 0.2% NaHCO3 and 2.5 nM of WR99210 for both asexual and sexual stages.
# Both fixed-dose and dose-response analyses were performed according to a second protocol (Paris laboratory) to validate the selected hits from primary screening. Briefly, the gametocyte suspension was loaded into a 96-well empty plate (200 µL/well). For each dose-response, first, well volume was doubled and compound was added to obtain 10 µM final concentration. For the dose-response analysis, the gametocyte suspension was then manually serially diluted 1/2 for 12 points, obtaining 5 nM as the lower concentration. The same operation was done with DMSO to have a negative control. After 24 hours of incubation at 37 °C, gametocyte suspensions were loaded into a 96-well filtration plate[28] and microsphiltration was manually performed at 37 °C. Up and downstream samples were incubated for 30 min with Hoechst 33342 nuclear staining (1/1000 diluted in PBS, Thermo Fischer cat. no. H3570), washed, resuspended in 200 µL of PBS and then loaded into an empty 96-well plate before FACSCanto (BD Biosciences, Franklin Lakes, New Jersey, USA) quantification. Data from cytofluorimetry were analyzed with FlowJo V12. As per previously described experiences with this technique, to avoid the risk of microbead layers saturation, a microsphiltration experiment was repeated when the upstream gametocytemia exceeded 10%[25],[69].
# [4] = 3D7, 48 h, read-out: IC50, 3D7 strain (Fig. 5B)
compound,measurement,setting,value
"C[C@H]1Cc2c([nH]c3cc(Cl)c(F)cc23)[C@@]2(N1)C(=O)Nc1ccc(Cl)cc12 [NITD609, cipargamin]",IC50,[1]; [4],1.25 nM
same,IC50,"[2]; ring stage, red curves, read-out: IC50, NF54 strain (Fig. 5B)",1.8 nM
same,retention 24 h after drug washout,[3],23%
same,confirmation of stiffening activity upon post-screening,[3],confirmed
same,Normalized retention rate,[3],66%
same,"Retention rates (single wells, Figure 4b)",[3]; gametocytes exposed to drugs 24 h,36.4701 and 62.0956 and 72.239
CNC(=O)N1C[C@@H](C)N(c2ccc(C(=O)Nc3ccc(-c4ccc(-c5c[nH]c([C@@H]6CCCN6C(=O)[C@@H](NC(=O)OC)C(C)C)n5)cc4)c(OC(F)(F)F)c3)cn2)C[C@@H]1C [TD-6450],IC50,[1]; [4],730 nM
same,IC50,"[1]; 3D7, 2 experiments, 48 h, read-out: IC50 on asexual parasites, 3D7",875 ± 205 nM
same,Parasitemia 1,[2]; 10 µM,0.14
same,Parasitemia 2,[2]; 10 µM,0.17
same,Parasitemia 3,[2]; 10 µM,0.23
same,Parasitemia 1,[2]; 20 µM,0.2
same,Parasitemia 2,[2]; 20 µM,0.18
same,Parasitemia 3,[2]; 20 µM,0.2
same,IC50,"[2]; 2 experiments, read-out: IC50 on asexual parasites, NF54",1330 ± 230 nM
same,IC50,"[2]; ring stage, blue curves, read-out: IC50, NF54 strain (Fig. 5B)",1170 nM
same,retention 24 h after drug washout,[3],43%
same,confirmation of stiffening activity upon post-screening,[3],confirmed
same,IC50,"[3]; Plasmodium falciparum, 3D7, 96-well, five independent experiments, read-out: stiffening IC50, median (±SD)",280 ± 580 nM
same,Normalized retention rate,[3],27%
same,persistence of stiffening activity after drug washout,[3]; mature gametocytes,≥ 24 h
COc1cc2c(cc1OC)[C@@H]1Cc3ccc(OC)c(OC)c3CN1CC2 [(S)-(-)-Tetrahydropalmatine],confirmation of stiffening activity upon post-screening,[3]; listed as L-THP,not fully confirmed; also recorded: did not confirm
